Assay results: patent US5837516A, “Subtilisin variants capable of cleaving substrates containing basic residues” (Genentech, Inc., priority 1995, dated 1998)
Where a chain is given by its changes, count along the chain named. Residues, ends and D or L forms follow the SMILES beside them.

Tests used:
[1] = biological target: T1, subtilisin BPN' variant N62D/Y104D/G166D (SEQ ID NO: 75) (Bacillus amyloliquefaciens, UniProt P00782, G273D/N169D/Y211D); assay: Kinetic analysis, hydrolysis of succinyl-tetrapeptide-pNA substrates; format: biochemical; settings: relative to succinyl-RAKR-pNA
T1 construct: the mature enzyme +1 to +275; made in house; host or cells: Bacillus subtilis BG2036 (protease-deficient), secreted
T1 sequence (P00782 108-382 N169D/Y211D/G273D): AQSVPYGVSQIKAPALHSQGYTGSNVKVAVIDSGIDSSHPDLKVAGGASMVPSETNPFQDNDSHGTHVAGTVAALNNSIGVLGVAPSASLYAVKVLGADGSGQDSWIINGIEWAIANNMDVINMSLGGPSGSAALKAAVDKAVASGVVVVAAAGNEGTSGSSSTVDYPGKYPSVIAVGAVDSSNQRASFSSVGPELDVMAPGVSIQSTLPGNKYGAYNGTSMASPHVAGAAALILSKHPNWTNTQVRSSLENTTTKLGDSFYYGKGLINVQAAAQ
Method: The mature N62D/Y104D/G166D variant was purified and analyzed for its ability to hydrolyze several tetrapeptide-pNA substrates.
Kinetic analysis of WT, N62D/G166D, and N62D/Y104D/G166D subtilisin BPN'
Subtilisins were assayed by measuring the initial rates of hydrolysis of p-nitroanilide tetrapeptide substrates in 0.4 mL 20 mM Tris-Cl pH 8.2, 4% (v/v) dimethyl sulfoxide at (25±0.2)° C. as described previously (Estell, D. A., Graycar, T. P., Miller, J. V., Powers, D. B., Burnier, J. P., Ng, P. G. and Wells, J. A. (1986)Science 233:659-663). Enzyme concentrations (E)0 were determined spectrophotometrically using E280 nm 0.1%=1.17 (Matsubara, H.; Kasper, C B.; Brown, D. M.; and Smith, E. L. (1965)J. Biol. Chem.,240:1125-1130.), and were typically 5-50 nM in reactions. Initial rates were determined for nine to twelve different substrate concentrations over the range of 0.001-2.0 mM. Plots of initial rates (v) versus substrate concentration (S) were fitted to the Michaelis-Menton equation, [formula] to determine the kinetic constants kcat and Km (Fersht, A. in "Enzyme Structure and Mechanism", Second edition, Freeman and Co., N.Y.) using the program Kaleidagraph (Synergy Software, Reading, Pa.).

subtilisin = biological target: T2, subtilisin (Bacillus amyloliquefaciens, UniProt P00782); settings: Estell et al. (1986) Science 233:659-663; cited from earlier work
T2 sequence (P00782 108-382): T1 sequence (P00782 108-382 N169D/Y211D/G273D) with D62N, D104Y, D166G

SMILES: C[C@H](NC(=O)CCC(=O)O)C(=O)N[C@@H](C)C(=O)N1CCC[C@H]1C(=O)N[C@@H](Cc1ccccc1)C(=O)Nc1ccc([N+](=O)[O-])cc1 [succinyl-AAPF-pNA, N-succinyl-alanine-alanine-proline-phenylalanyl-p-nitroanalide] (HELM PEPTIDE1{[O=C(O)CCC(=O)[*:2]].A.A.P.F.[O=[N+]([O-])c1ccc(N[*:1])cc1]}$$$$V2.0)
- catalytic efficiency (kcat/Km), fold less efficiently hydrolyzed than succinyl-RAKR-pNA [1]: 6×10^4 fold
- kcat /Km ratio (subtilisin): 300000 M⁻¹ s⁻¹
